Consider 52 compounds from PubChem BioAssay AID1996.

≈ marks a conversion by molar mass, not a printed value. Where only a bound is given, the exact number is not on record here.

For this data set the following is noted: buffer; pH 7.4; 200.0 µM.
The solubility (kinetic) is solubility judged after dilution from a stock solution rather than from solid. `CCNc1c(NC(=O)c2cccs2)c(=O)oc2ccccc12` gave a solubility (kinetic) of 4.5 µg/mL (≈ 14.3 µM). Under `N#CC(C#N)=C1NC2(CCCCC2)Cc2ccccc21` stands 0.8 µg/mL (≈ 3.04 µM); under `CCOc1ccc2nc(N3C(=O)CNC3=S)sc2c1`, 2.5 µg/mL (≈ 8.52 µM). The value for `O=C(NNC(=S)NC(=O)c1ccccc1)c1cccnc1` was over 45.1 µg/mL. Under `Cn1c(SCC(=O)O)nc2sc3c(c2c1=O)CCC3` stands over 44.5 µg/mL. In the case of `Cc1ccc(NC(=O)COc2ccccc2)cc1Cl`, the solubility (kinetic) turned out to be 2.4 µg/mL (≈ 8.7 µM). Regarding `O=C(Cc1ccccc1F)NCC1(N2CCOCC2)CCCCC1`, the solubility (kinetic) is over 50.2 µg/mL.

With `CSc1cccc(N=C2C(=O)Nc3ccccc32)c1`, the solubility (kinetic) worked out at 33 µg/mL (≈ 123 µM). The compound `COc1ccc(NC(=O)c2cccnc2)cc1` returned a solubility (kinetic) of over 34.2 µg/mL.

`CCOc1ccccc1NC(=O)C(C)SCc1ccccc1` (configuration not stated) gave a kinetic solubility of 1.4 µg/mL (≈ 4.44 µM). The value for `CSc1oc(-c2cccs2)nc1S(=O)(=O)c1ccccc1` was 3.9 µg/mL (≈ 11.6 µM); that for `Cc1c(C(=O)NC2CCCc3ccccc32)cccc1[N+](=O)[O-]` (configuration not stated) was 6.1 µg/mL (≈ 19.7 µM).

`Cn1cccc1C(=O)NCc1ccc(Cl)cc1` returned a solubility (kinetic) of over 37.3 µg/mL. Under `COC(=O)c1ccc(NC(=O)CCOc2ccccc2)cc1` stands 4.5 µg/mL (≈ 15 µM); under `O=C(O)c1c(NC(=O)N(CCO)Cc2ccccc2)sc2c1CCCC2`, 18.3 µg/mL (≈ 48.9 µM).

The compound `Cc1ccc(C)c(S(=O)(=O)NCc2ccc(C(=O)N3CCOCC3)cc2)c1` showed a kinetic solubility of over 58.3 µg/mL. In the case of `Cc1ccc(-c2ccc(C(=O)NCCCNC(=O)c3cnccn3)o2)cc1Cl`, the solubility (kinetic) was 6.3 µg/mL (≈ 15.8 µM). Under `Cc1ccc(S(=O)(=O)Nc2nc3ccc(N)cc3s2)cc1` stands 45.8 µg/mL (≈ 143 µM). The compound `CNC(=O)Nc1cccc(-c2cc(-c3c(Cl)cccc3Cl)no2)c1` yielded a kinetic solubility of under 0.3 µg/mL. The value for `Cn1ccnc1SCC(=O)c1cccc(C(F)(F)F)c1` was over 45 µg/mL; that for `CCOc1cc(CN2CCN(c3ncccn3)CC2)ccc1OC` was 43.4 µg/mL (≈ 132 µM). `Cc1ccc(C(=O)Nc2ccc(Cl)cc2C)c(Cl)c1` gave a kinetic solubility of under 0.6 µg/mL.

`CSc1ncc(CN2CCN(C(C)C)C(CCO)C2)cn1` (configuration not stated): the solubility (kinetic) was over 46.6 µg/mL.

The compound `CCCCc1nc2sc3c(c2c(=O)[nH]1)CC(C)(C)OC3` showed a solubility (kinetic) of 2.3 µg/mL (≈ 7.87 µM). Under `O=S(=O)(c1ccc(F)cc1)N1CCc2ccccc2C1` stands 1.2 µg/mL (≈ 4.12 µM); under `Cc1ccc(N2C(=O)C3CCCN3C2=S)cc1` (configuration not stated), 34.2 µg/mL (≈ 139 µM); under `O=C(COC(=O)CCN1C(=O)C2CC=CCC2C1=O)Nc1ccc([N+](=O)[O-])cc1` (configuration not stated), over 60.2 µg/mL. The value for `COc1cccc(Oc2ccc(C(F)(F)F)cc2NC(=O)CN2C(=O)NC3(CCCC3)C2=O)c1` was 2.7 µg/mL (≈ 5.66 µM); that for `CSc1ccc(CN(C)C(=O)C(c2ccccc2)c2ccccc2)cc1` was 7.7 µg/mL (≈ 21.3 µM). Under `O=C(CCN1C(=O)c2ccncc2C1=O)Nc1cc(F)ccc1F` stands 41.7 µg/mL (≈ 126 µM).

On to `O=Cc1ccc(OCCOc2ccc([N+](=O)[O-])cc2)cc1`, for which the kinetic solubility is under 0.6 µg/mL. In turn, `O=C(c1ccc(Cl)cc1)N1CCCCC(Cl)C1=O` (configuration not stated) displayed a kinetic solubility of 6.9 µg/mL (≈ 24.1 µM).

Compound `CCC(C)NC(=O)CN1C(=O)c2cccc3cccc1c23` (configuration not stated) registered a kinetic solubility of 6.3 µg/mL (≈ 22.3 µM). Under `CCOC(=O)CNC(=O)CSc1nccn1Cc1ccco1` stands over 48.5 µg/mL. `CCN1CCN(Cc2nnc(-c3ccc(C)cc3)o2)CC1` displayed a kinetic solubility of over 43 µg/mL.

`O=c1oc(-c2ccc([N+](=O)[O-])cc2)nc2ccccc12` came in with a kinetic solubility of 0.3 µg/mL (≈ 1.12 µM). The value for `Nc1[nH]c(=O)ncc1F` was over 19.4 µg/mL; that for `CCN1C(=O)CSC1=Nc1ccc(OC)cc1` was 33.4 µg/mL (≈ 133 µM). Under `COc1cccc(CC(=O)OCC(=O)NC2CCCCCC2)c1` stands over 47.9 µg/mL; under `c1ccc2c(Nc3nc(-c4ccncc4)nc4ccccc34)cccc2c1`, under 0.2 µg/mL; under `O=C(NCc1ccccc1)NC12CC3CC(CC(C3)C1)C2`, 2.6 µg/mL (≈ 9.14 µM). The value for `O=C(OCCN1C(=O)c2ccccc2C1=O)Oc1ccccc1` was 37.1 µg/mL (≈ 119 µM); that for `Cl.O=C(NN1C(=O)CSC1=S)c1cccnc1` was over 43.5 µg/mL. Turning to `Cc1cccc(OCC(=O)Nc2ccc(NC(=O)c3ccco3)cc2)c1`, the kinetic solubility is 0.6 µg/mL (≈ 1.71 µM). The value for `Cc1ccc(SCC(=O)NC(=O)c2ccccc2Br)c(C)c1` was over 56.7 µg/mL.

Regarding `CCOc1ccc(C(=O)OCC(=O)Nc2cccnc2Cl)cc1OCC`, the solubility (kinetic) was 19 µg/mL (≈ 50.2 µM). Compound `O=C(Nc1nc2ccccc2s1)c1ccc(F)cc1` gave a kinetic solubility of 0.6 µg/mL (≈ 2.2 µM). The value for `O=C(Nc1cccc(/C=C/c2ccccn2)c1)c1cc(Cl)ccn1` was 2.1 µg/mL (≈ 6.25 µM); that for `COC(=O)c1cc(Sc2c(Cl)cccc2Cl)ccn1` was 37 µg/mL (≈ 118 µM). Turning to `CCC(=O)Oc1ccc(C2NC(=O)c3ccccc3O2)cc1OC` (configuration not stated), the solubility (kinetic) was 28.5 µg/mL (≈ 87.1 µM). Under `COc1ccc(Cl)cc1C(=O)Nc1cccnc1Cl` stands under 0.3 µg/mL; under `O=[N+]([O-])c1cccc2c1ccc1ncccc12`, 1.3 µg/mL (≈ 5.8 µM).
